The text below walks through data of PubChem BioAssay (NCI).

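Method: 48-hour compound exposure of cells in 96-well plates, five concentrations, linear interpolation of endpoints. Here, GI50 denotes the concentration required for 50% inhibition of growth. TGI is the concentration that stops growth completely.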

Some test systems named below: NCI/ADR-RES ovarian; UACC-257 melanoma; NCI-H522 lung; A498 renal; SW-620 colon; 786-0 renal; ACHN renal; NCI-H460 lung; KM12 colon; HOP-92 NSCLC.
Common to all, as to experiment: inhibition of tumour cell growth, NCI panel, 48 h

Consider `COc1c(OC)c(OC)c2c(=O)cc(-c3ccc(OC(C)C)cc3)oc2c1OC`, for which the TGI in the assay with NCI/ADR-RES ovarian was 61.6 µM; with UACC-257 melanoma, over 58.9 µM; in the assay on NCI-H522 lung, over 58.2 µM; in the assay on A498 renal, 36.9 µM; in the assay with SW-620 colon it was over 58.8 µM; in the assay on 786-0 renal it was over 49.3 µM. Besides, the TGI was over 55.8 µM in the assay with ACHN renal, over 56.6 µM with NCI-H460 lung, over 100 µM with KM12 colon and 23.4 µM in the assay with HOP-92 NSCLC.
As to `Cc1c(Nc2nccc3cc(CN4CC[C@@H](O)C4)cnc23)cccc1-c1cccc(-c2nc3cc(CN4CC[C@@H](C(=O)O)C4)cc(C#N)c3o2)c1C`, the GI50 in the assay with NCI/ADR-RES ovarian was 14.8 µM; in the assay with UACC-257 melanoma it was 14.2 µM; in the assay with NCI-H522 lung it was 13.1 µM; in the assay on A498 renal it was over 100 µM; in the assay with SW-620 colon, 4.67 µM; in the assay with 786-0 renal, 4.5 µM. Also, the GI50 was 91.7 µM in the assay on ACHN renal, 7.15 µM in the assay with NCI-H460 lung, 10.7 µM in the assay with KM12 colon and 2 µM in the assay on HOP-92 NSCLC. Also, the TGI in the assay on NCI/ADR-RES ovarian was over 100 µM; in the assay with UACC-257 melanoma it was 32.5 µM; in the assay on NCI-H522 lung it was 30.6 µM; in the assay on A498 renal, over 100 µM; with SW-620 colon, 17.9 µM; in the assay on 786-0 renal it was over 100 µM. The TGI is over 100 µM in the assay with ACHN renal, 21.8 µM with NCI-H460 lung, 27.6 µM in the assay on KM12 colon and over 100 µM in the assay on HOP-92 NSCLC.
On to `Fc1ccc2c(c1)C1=C(CCC2)C(c2ccc(Cl)cc2)NC(=S)N1` (stereo unspecified), for which the GI50 with NCI/ADR-RES ovarian was 61.6 µM; in the assay with UACC-257 melanoma, 21.5 µM; in the assay with NCI-H522 lung, 13.1 µM; with A498 renal it was 43.6 µM; in the assay with SW-620 colon, 39.1 µM; with 786-0 renal it was 25 µM. The GI50 in the assay with ACHN renal was 29.5 µM; in the assay with NCI-H460 lung, 32.7 µM; with KM12 colon it was 32.3 µM; with HOP-92 NSCLC, 16.7 µM. Also, the TGI in the assay on NCI/ADR-RES ovarian was over 100 µM; in the assay with UACC-257 melanoma, 70 µM; in the assay with NCI-H522 lung, 94 µM; in the assay on A498 renal it was over 100 µM; with SW-620 colon, over 100 µM; in the assay on 786-0 renal it was over 100 µM. For the same compound, the TGI in the assay with ACHN renal was over 100 µM; in the assay with NCI-H460 lung, over 100 µM; in the assay on KM12 colon, over 100 µM; in the assay on HOP-92 NSCLC it was 73.9 µM.
Take `CCN1CCN(c2cc(C(=O)Nc3cccc(Nc4ccc5c(OC)cccc5n4)c3)cc(C(F)(F)F)c2)CC1`: the GI50 in the assay with NCI/ADR-RES ovarian was 1.29 µM; with UACC-257 melanoma, 1.02 µM; in the assay with NCI-H522 lung it was 1.01 µM; with A498 renal, 4.94 µM; in the assay with SW-620 colon it was 3.67 µM; in the assay with 786-0 renal, 3.73 µM. The GI50 with ACHN renal was 1.21 µM; with NCI-H460 lung, 1.34 µM; in the assay with KM12 colon it was 1.71 µM; in the assay on HOP-92 NSCLC it was 1.26 µM. The TGI worked out at 6.69 µM in the assay with NCI/ADR-RES ovarian; 3.6 µM with UACC-257 melanoma; 4 µM in the assay on NCI-H522 lung; 10.5 µM in the assay with A498 renal; 8.77 µM with SW-620 colon; 7.84 µM in the assay on 786-0 renal. Moreover, the TGI with ACHN renal was 4.97 µM; in the assay with NCI-H460 lung, 5.32 µM; in the assay with KM12 colon, 6.35 µM; in the assay with HOP-92 NSCLC it was 4.66 µM.
Take `CN1CCN(CCCOc2ccc3nc(Nc4ccc(F)c(F)c4)ccc3c2)CC1`: the GI50 was 3.4 µM in the assay on NCI/ADR-RES ovarian; 1.76 µM in the assay with UACC-257 melanoma; 1.44 µM in the assay with NCI-H522 lung; 1.26 µM with A498 renal; 1.82 µM in the assay on SW-620 colon; 1.62 µM with 786-0 renal. For the same compound, the GI50 is 2.24 µM in the assay with ACHN renal, 1.91 µM in the assay on NCI-H460 lung, 1.89 µM in the assay with KM12 colon and 1.1 µM in the assay on HOP-92 NSCLC. Further, the TGI with NCI/ADR-RES ovarian stood at 14.7 µM; in the assay on UACC-257 melanoma, 3.27 µM; in the assay with NCI-H522 lung, 3.1 µM; in the assay on A498 renal it was 4.03 µM; in the assay on SW-620 colon, 3.71 µM; in the assay with 786-0 renal it was 3.3 µM. Moreover, the TGI with ACHN renal was found to be 5.6 µM; in the assay on NCI-H460 lung, 4.12 µM; in the assay on KM12 colon it was 4.16 µM; in the assay with HOP-92 NSCLC, 3.6 µM.
Take `COc1cc(S(=O)(=O)Nc2nc(-c3ccc(N4C(=O)C(C)SC4c4ccccc4O)cc3)cs2)ccc1Cl` (stereo unspecified): the GI50 with NCI/ADR-RES ovarian was 50.9 µM; in the assay with UACC-257 melanoma it was 32.8 µM; in the assay with NCI-H522 lung it was 53.7 µM; in the assay with A498 renal it was 51.3 µM; in the assay on SW-620 colon, 62 µM; in the assay on 786-0 renal it was 64.9 µM. Moreover, the GI50 is 42.7 µM in the assay on ACHN renal, 42.5 µM in the assay with NCI-H460 lung, 51.1 µM in the assay with KM12 colon and 28 µM in the assay with HOP-92 NSCLC. For the same compound, the TGI in the assay on NCI/ADR-RES ovarian, in the assay on UACC-257 melanoma, in the assay on NCI-H522 lung, with A498 renal, in the assay on SW-620 colon and with 786-0 renal was over 100 µM each time. For the same compound, the TGI in the assay with ACHN renal, with NCI-H460 lung, with KM12 colon and in the assay on HOP-92 NSCLC was over 100 µM in each case.
As for `COc1cc(OC)c2c(=O)cc(-c3ccccc3OCc3ccccc3)oc2c1OC`, the GI50 is 2.96 µM with NCI/ADR-RES ovarian; 6.05 µM in the assay with UACC-257 melanoma; 50.7 µM with NCI-H522 lung; 9.62 µM with A498 renal; 8.06 µM in the assay with SW-620 colon; 5.49 µM in the assay on 786-0 renal. Besides, the GI50 is 6.19 µM in the assay on ACHN renal, 5.42 µM in the assay on NCI-H460 lung, 3.25 µM in the assay on KM12 colon and 2.63 µM with HOP-92 NSCLC. For the same compound, the TGI is 18.6 µM in the assay with NCI/ADR-RES ovarian; 82.1 µM in the assay on UACC-257 melanoma; over 100 µM in the assay with NCI-H522 lung; 69.9 µM with A498 renal; over 100 µM in the assay on SW-620 colon; 56.4 µM in the assay on 786-0 renal. The TGI in the assay on ACHN renal is over 100 µM; in the assay with NCI-H460 lung, over 100 µM; with KM12 colon, 16.2 µM; in the assay with HOP-92 NSCLC, 18.6 µM.
For `O=C1NC(=O)C(c2cccc(Cl)c2)=C1Nc1ccc(Cl)c(C(=O)O)c1`, the GI50 with NCI/ADR-RES ovarian, in the assay with UACC-257 melanoma, in the assay on NCI-H522 lung, in the assay on A498 renal, in the assay with SW-620 colon and in the assay with 786-0 renal was over 25 µM in each case. Besides, the GI50 with ACHN renal, with NCI-H460 lung, in the assay with KM12 colon and in the assay with HOP-92 NSCLC was over 25 µM each time. In addition, the TGI with NCI/ADR-RES ovarian, in the assay on UACC-257 melanoma, in the assay with NCI-H522 lung, in the assay with A498 renal, in the assay with SW-620 colon and in the assay with 786-0 renal was over 25 µM in each case. Further, the TGI with ACHN renal, in the assay on NCI-H460 lung, in the assay on KM12 colon and with HOP-92 NSCLC was over 25 µM each time.
Turning to `CC(C)C[C@H](NC(=O)Cn1cccc(CNC(=O)c2ccccc2)c1=O)B(O)O`, the GI50 with NCI/ADR-RES ovarian is over 69.1 µM; in the assay on UACC-257 melanoma it was 0.505 µM; in the assay with NCI-H522 lung, 0.377 µM; in the assay with A498 renal it was 0.136 µM; in the assay with SW-620 colon, 0.345 µM; in the assay with 786-0 renal, 1.06 µM. Moreover, the GI50 in the assay on ACHN renal is 0.626 µM; in the assay with NCI-H460 lung it was 2.65 µM; with KM12 colon, 0.649 µM; in the assay with HOP-92 NSCLC, 0.638 µM. Further, the TGI was over 100 µM in the assay with NCI/ADR-RES ovarian; 3.53 µM with UACC-257 melanoma; 2.3 µM in the assay with NCI-H522 lung; 0.706 µM in the assay with A498 renal; 6.85 µM in the assay with SW-620 colon; over 61.5 µM in the assay with 786-0 renal. Further, the TGI in the assay with ACHN renal is over 100 µM; in the assay on NCI-H460 lung, 15.8 µM; in the assay on KM12 colon, 3 µM; in the assay on HOP-92 NSCLC, 4.61 µM.
For `O=C1OCC2=C1C(c1cccc(C(F)(F)F)c1)c1cc3c(cc1N2CCO)OCCO3` (stereo unspecified), the GI50 in the assay on NCI/ADR-RES ovarian was 1.11 µM; with UACC-257 melanoma it was over 33.3 µM; in the assay with NCI-H522 lung it was 0.488 µM; in the assay on A498 renal, 0.866 µM; in the assay with SW-620 colon, 1.24 µM; in the assay on 786-0 renal, 1.81 µM. Further, the GI50 is 2.83 µM in the assay with ACHN renal, 1.22 µM in the assay with NCI-H460 lung, 1.08 µM with KM12 colon and 2.7 µM in the assay on HOP-92 NSCLC. Besides, the TGI with NCI/ADR-RES ovarian was over 33.3 µM; in the assay on UACC-257 melanoma, over 33.3 µM; in the assay on NCI-H522 lung, 2.89 µM; in the assay with A498 renal, 3.25 µM; in the assay with SW-620 colon, over 33.3 µM; in the assay with 786-0 renal, over 33.3 µM. For the same compound, the TGI in the assay with ACHN renal, in the assay with NCI-H460 lung, in the assay on KM12 colon and in the assay on HOP-92 NSCLC was over 33.3 µM each time.
On to `CC1=C(CO)C(=O)O[C@@H]([C@@H](C)[C@H]2CC[C@H]3[C@@H]4C[C@H]5O[C@]56[C@@H](O)C=CC(=O)[C@]6(C)[C@H]4CC[C@]23C)C1`, for which the GI50 in the assay on NCI/ADR-RES ovarian was 0.821 µM; with A498 renal, 0.408 µM. The TGI in the assay with NCI/ADR-RES ovarian was found to be 11.2 µM; with UACC-257 melanoma, 2.32 µM; in the assay on NCI-H522 lung it was 0.114 µM; with A498 renal, 1.53 µM; in the assay on SW-620 colon it was 0.603 µM; in the assay on 786-0 renal, 1.73 µM. For the same compound, the TGI in the assay with ACHN renal was 2.02 µM; with NCI-H460 lung, 5.11 µM; in the assay on KM12 colon, 1.82 µM; in the assay with HOP-92 NSCLC it was 1.46 µM.
For `CC(=O)c1c[nH]c2ccc(-c3ccnc(Nc4ccc(NC(=O)C5CCCC5)c(CN5CCOCC5)c4)n3)cc12`, the GI50 with NCI/ADR-RES ovarian is 0.306 µM; in the assay with UACC-257 melanoma it was 0.0349 µM; with NCI-H522 lung, 0.0439 µM; with A498 renal, 0.0204 µM; in the assay with SW-620 colon, 0.0387 µM; with 786-0 renal it was 0.031 µM. For the same compound, the GI50 was 0.0305 µM in the assay with ACHN renal, 0.033 µM in the assay on NCI-H460 lung, 0.0258 µM with KM12 colon and 0.0284 µM in the assay on HOP-92 NSCLC. The TGI in the assay with NCI/ADR-RES ovarian worked out at 2.96 µM; in the assay on UACC-257 melanoma it was 0.175 µM; in the assay with NCI-H522 lung, 0.309 µM; with A498 renal, 0.0558 µM; in the assay on SW-620 colon it was 0.551 µM; in the assay on 786-0 renal, 2.63 µM. In addition, the TGI came to 0.125 µM in the assay on NCI-H460 lung, 0.141 µM with KM12 colon and 0.365 µM in the assay with HOP-92 NSCLC.
